Data as given in patent US20120270770A1, “Anti-angiogenic peptides and their uses” (priority 2010, published 2012).

Columns and labels:
[1] = tested on: arthritis (calcification of joints); experiment: Treatment of a patient with arthritis; type: in vivo, human; details: one patient, subcutaneous 10 mg once a week for one month, then once a month
Experimental: A patient with arthritis was treated by subcutaneous injection of 10 mg once a week for one month and then once a month for maintenance doses. A visible indication of arthritis is calcification of joints.

[2] = tested on: angiogenesis in Matrigel deposits imbibed with fibroblast growth factor 1 (FGF1); experiment: Matrigel deposit angiogenesis assay (FGF1-loaded Matrigel implanted in mice, histology score); type: in vivo
Source text: Matrigel deposits were surgically implanted on both sides of 4 mice per treatment yielding a possible 8 samples per treatment. Matrigel is a polymeric substance that appears to be relatively inert in animals and it can serve as a matrix that allows experimentation in vivo on many different difficult-to-study-processes. Prior to implantation, the Matrigel was allowed to imbibe fibroblast growth factor 1 (FGF1). This protein is a powerful inducer of angiogenesis and its presence guarantees that sufficient activity will be observed within the allotted time period of the experiment. Therefore, any inhibition of angiogenesis is likely to be a real phenomenon as the experiment has been set to heavily favor the angiogenic process. Angiogenesis occurs by day 14 and beginning Day 1 (Day 0=day of implantation), mice were injected IP daily with 20 μg of peptide in 100 μl of normal saline. The animals were sacrificed on Day 14, and each Matrigel deposit divided longitudinally and fixed in 10% buffered formalin. One of the halves of each Matrigel deposit was then sectioned. Read-out for this experiment was via histology, with semi-quantitative/qualitative counting of migration of cells and their subsequent assembly of lumenal structures within the Matrigel. This method allows us to observe the full physiologic spectrum of effects, and was useful in delineating trends. […] In FIG. 13, A represents what a section of a Matrigel gel deposit looks like under the microscope soon after surgical implantation. The sample in B is derived from the control at the conclusion of the experiment. Intense activity is present with numerous cells attaching to the surface of the Matrigel. Cells begin to penetrate the deposit and organize into discrete structures that coalesce to form the beginning of tubes twisting and branching in many directions. These venules eventually connect with the system carrying blood and it is possible to see red cells and lymphocytes within them. This process is called “arborization”, derived from the fact that the angiogenic process most closely resembles the growth of roots and branches of trees. All but two of the peptide treatments looked, more or less, like B (all the peptides of Table 1 were tested). In C, a typical sample from the peptide C-1 treatment is shown. […] Consequently, there were far fewer cells and cellular structures inside of the Matrigel. […] There were large regions of Matrigel that had no visibly associated structures and few single cells, including on the periphery, while other regions had some limited activity.
This system ranks each sample using a 0 to 4 plus (+) scale. Thus, B in FIG. 13 would yield a score of +++ while no + sign would yield a value of 0, as in A in FIG. 13. In Table 3 the data is modified to a numerical form and plotted averages are shown.

HMEC-1 monolayer = experiment: Endothelial cell migration assay (scraped HMEC-1 monolayer); type: cell-based; details: for Endothelial Cell Migration: NT = 1.00
Experimental: The results in Table 6 are gathered from an in vitro experiment and show the ability of JC 15 10N to inhibit the migration of endothelial cells (the “minus” values). This migration is a requisite step in the formation of new blood vessels. […] The shading indicates the presence of VEGF ([…] endothelial growth factor). This growth factor causes endothelial cell migration and consequent assembly of blood vessels.
Cell migration was performed as previously described. In brief, a HMEC-1 monolayer was scraped making a 1-mm wide denuded area then stimulated with VEGF and 10N and the area unoccupied by the migrating cells was determined using MetaMorph and expressed as a percentage of control.

[3] = tested on: Stage IV pancreatic cancer; experiment: Treatment of a patient with Stage IV pancreatic cancer; type: in vivo, human; details: one patient
Experimental: A diabetic since 12/01 was diagnosed with Stage IV pancreatic cancer in May 2002 with metastatic diseases in their liver. Median survival time of patients with Stage IV pancreatic cancer is 4.5 months. Median survival time of patients with Stage IV pancreatic cancer when treated with gemcitabine is 4.8 months. The longest anyone lived on gemcitabine treatment has been 19 months.
The patient of this case started JC15-10N peptide treatment on August 2002. The patient was given 0.5 mg/kg peptide sub-cutaneously. The patient weighted 128 lbs. and therefore they received 29 mg/injection per week. […] After receiving the peptide for more than 19 months, the patient was doing fine. The patient passed away from unrelated causes on July 2004.

[4] = 0 to 4 plus scale, 20 μg peptide IP daily, Day 14 histology

FAKKFAKKFK [JC15-10N]
calcification of the ankle joints (x-ray) [1]: disappeared
angiogenic activity score, Sample 1 [2, 4]: 1
angiogenic activity score, Sample 2 [2, 4]: 2
angiogenic activity score, Sample 3 [2, 4]: 2
angiogenic activity score, Sample 4 [2, 4]: 3
angiogenic activity score, Sample 5 [2, 4]: 1
angiogenic activity score, Sample 6 [2, 4]: 2
angiogenic activity score, Sample 7 [2, 4]: 2
% Diff. ([2]; difference of mean score from control (2.50)): −25.71%
angiogenic / anti-angiogenic activity in Matrigel deposit (in words) ([2]; histology, 20 μg peptide IP daily, Day 14): possesses anti-angiogenic activity
angiogenic activity score, Mean ([2]; mean of samples, control mean 2.50): 1.86
Endothelial Cell Migration (HMEC-1 monolayer; 10N 100 nM, first series (VEGF 150 ng/ml), VEGF presence marked by shading, not reproduced): 0.42
Endothelial Cell Migration (HMEC-1 monolayer; 10N 100 nM, second series (VEGF 75 ng/ml)): −1.18
Endothelial Cell Migration (HMEC-1 monolayer; 10N 100 nM, third series (VEGF 150 ng/ml)): 0.55
Endothelial Cell Migration (HMEC-1 monolayer; 10N 1 μM, first series (VEGF 150 ng/ml)): −1.57
Endothelial Cell Migration (HMEC-1 monolayer; 10N 1 μM, second series (VEGF 75 ng/ml)): 0.57
Endothelial Cell Migration (HMEC-1 monolayer; 10N 1 μM, third series (VEGF 150 ng/ml)): −1.35
Endothelial Cell Migration (HMEC-1 monolayer; 10N 10 μM, first series (VEGF 150 ng/ml)): 0.90
Endothelial Cell Migration (HMEC-1 monolayer; 10N 10 μM, second series (VEGF 75 ng/ml)): −1.02
Endothelial Cell Migration (HMEC-1 monolayer; 10N 10 μM, third series (VEGF 150 ng/ml)): −1.02
Endothelial Cell Migration (HMEC-1 monolayer; 10N 100 μM, first series (VEGF 150 ng/ml)): 0.80
Endothelial Cell Migration (HMEC-1 monolayer; 10N 100 μM, second series (VEGF 75 ng/ml)): −1.01
Endothelial Cell Migration (HMEC-1 monolayer; 10N 100 μM, third series (VEGF 150 ng/ml)): −1.06
Endothelial Cell Migration (HMEC-1 monolayer; 10N 1 mM, first series (VEGF 150 ng/ml)): −1.01
Endothelial Cell Migration (HMEC-1 monolayer; 10N 1 mM, second series (VEGF 75 ng/ml)): 0.55
Endothelial Cell Migration (HMEC-1 monolayer; 10N 1 mM, third series (VEGF 150 ng/ml)): 0.92
effect on migration of endothelial cells (in words) (HMEC-1 monolayer; in vitro, with VEGF): inhibits this migration even in the presence of VEGF
need for diabetic medication (indicating primary tumor regressing) ([3]; 0.5 mg/kg sub-cutaneously per week): required no more diabetic medication
metastatic disease in the liver ([3]; 0.5 mg/kg sub-cutaneously, 29 mg/injection per week): diminished significantly
time on peptide with the patient doing fine ([3]; Stage IV pancreatic cancer, 0.5 mg/kg sub-cutaneously per week): more than 19 months
